According to the NIST ThermoML archive (doi:10.1016/j.jct.2012.11.027):
Numbers after ± are expanded uncertainties.

Legend:
[1] = 101 kPa, Liquid, Linear variable-path acoustic interferometer
[2] = xn = mol fraction of the nth substance listed; conditions: 101 kPa, Liquid, Linear variable-path acoustic interferometer, x2 = 0

Structure (SMILES): CCCCO [butan-1-ol]
- speed of sound ([1]; 288.15 K): 1282.2 ± 1.9 m/s
- speed of sound ([1]; 293.15 K): 1262.4 ± 1.9 m/s
- speed of sound ([1]; 298.15 K): 1242.6 ± 1.8 m/s
- speed of sound ([1]; 303.15 K): 1225.8 ± 1.8 m/s
- speed of sound ([1]; 308.15 K): 1207.6 ± 1.8 m/s
- speed of sound ([1]; 313.15 K): 1189.2 ± 1.8 m/s
- speed of sound ([1]; 318.15 K): 1170 ± 1.8 m/s

Structure (SMILES): CCCCCCO [hexan-1-ol]
- speed of sound ([1]; 288.15 K): 1339.2 ± 1.9 m/s
- speed of sound ([1]; 293.15 K): 1321.2 ± 1.9 m/s
- speed of sound ([1]; 298.15 K): 1306.9 ± 1.9 m/s
- speed of sound ([1]; 303.15 K): 1289.5 ± 1.9 m/s
- speed of sound ([1]; 308.15 K): 1275.7 ± 1.9 m/s
- speed of sound ([1]; 313.15 K): 1256.3 ± 1.9 m/s
- speed of sound ([1]; 318.15 K): 1237.5 ± 1.8 m/s

Structure (SMILES): CCCCCCO [hexan-1-ol] + C=CC(=O)OC
- speed of sound ([2]; 288.15 K): 1339.2 ± 1.9 m/s
- speed of sound ([2]; 293.15 K): 1321.2 ± 1.9 m/s
- speed of sound ([2]; 298.15 K): 1306.9 ± 1.9 m/s
- speed of sound ([2]; 303.15 K): 1289.5 ± 1.9 m/s
- speed of sound ([2]; 308.15 K): 1275.7 ± 1.9 m/s
- speed of sound ([2]; 313.15 K): 1256.3 ± 1.9 m/s
- speed of sound ([2]; 318.15 K): 1237.5 ± 1.8 m/s

Structure (SMILES): CCCCCCCCCCO [decan-1-ol]
- speed of sound ([1]; 288.15 K): 1410.6 ± 2 m/s
- speed of sound ([1]; 293.15 K): 1393.6 ± 2 m/s
- speed of sound ([1]; 298.15 K): 1377.3 ± 2 m/s
- speed of sound ([1]; 303.15 K): 1359.8 ± 2 m/s
- speed of sound ([1]; 308.15 K): 1345.7 ± 2 m/s
- speed of sound ([1]; 313.15 K): 1326.7 ± 2 m/s
- speed of sound ([1]; 318.15 K): 1312.1 ± 1.9 m/s

Structure (SMILES): CCCCCCCCO [octan-1-ol] + C=CC(=O)OC
- speed of sound ([2]; 288.15 K): 1390.2 ± 2 m/s
- speed of sound ([2]; 293.15 K): 1371.5 ± 2 m/s
- speed of sound ([2]; 298.15 K): 1352.4 ± 2 m/s
- speed of sound ([2]; 303.15 K): 1333.1 ± 2 m/s
- speed of sound ([2]; 308.15 K): 1315.7 ± 2 m/s
- speed of sound ([2]; 313.15 K): 1298.9 ± 1.9 m/s
- speed of sound ([2]; 318.15 K): 1282.9 ± 1.9 m/s

Structure (SMILES): CCCCCCCCCCO [decan-1-ol] + C=CC(=O)OC
- speed of sound ([2]; 288.15 K): 1410.6 ± 2 m/s
- speed of sound ([2]; 293.15 K): 1393.6 ± 2 m/s
- speed of sound ([2]; 298.15 K): 1377.3 ± 2 m/s
- speed of sound ([2]; 303.15 K): 1359.8 ± 2 m/s
- speed of sound ([2]; 308.15 K): 1345.7 ± 2 m/s
- speed of sound ([2]; 313.15 K): 1326.7 ± 2 m/s
- speed of sound ([2]; 318.15 K): 1312.1 ± 1.9 m/s

Structure (SMILES): CCCCO [butan-1-ol] + C=CC(=O)OC
- speed of sound ([2]; 288.15 K): 1282.2 ± 1.9 m/s
- speed of sound ([2]; 293.15 K): 1262.4 ± 1.9 m/s
- speed of sound ([2]; 298.15 K): 1242.6 ± 1.8 m/s
- speed of sound ([2]; 303.15 K): 1225.8 ± 1.8 m/s
- speed of sound ([2]; 308.15 K): 1207.6 ± 1.8 m/s
- speed of sound ([2]; 313.15 K): 1189.2 ± 1.8 m/s
- speed of sound ([2]; 318.15 K): 1170 ± 1.8 m/s

Structure (SMILES): CCCCCCCCO [octan-1-ol]
- speed of sound ([1]; 288.15 K): 1390.2 ± 2 m/s
- speed of sound ([1]; 293.15 K): 1371.5 ± 2 m/s
- speed of sound ([1]; 298.15 K): 1352.4 ± 2 m/s
- speed of sound ([1]; 303.15 K): 1333.1 ± 2 m/s
- speed of sound ([1]; 308.15 K): 1315.7 ± 2 m/s
- speed of sound ([1]; 313.15 K): 1298.9 ± 1.9 m/s
- speed of sound ([1]; 318.15 K): 1282.9 ± 1.9 m/s

Structure (SMILES): C=CC(=O)OC [methyl propenoate]
- speed of sound ([1]; 288.15 K): 1226.6 ± 1.8 m/s
- speed of sound ([1]; 293.15 K): 1204.6 ± 1.8 m/s
- speed of sound ([1]; 298.15 K): 1183.6 ± 1.8 m/s
- speed of sound ([1]; 303.15 K): 1162.2 ± 1.7 m/s
- speed of sound ([1]; 308.15 K): 1139.1 ± 1.7 m/s
- speed of sound ([1]; 313.15 K): 1117.8 ± 1.7 m/s
- speed of sound ([1]; 318.15 K): 1095.7 ± 1.7 m/s
